Test results as given in ChEMBL document CHEMBL6153048, “Synthesis and pharmacological evaluation of natural product diphyllin derivatives against head and neck squamous cell carcinoma” (Eur J Med Chem, 2025).
The source made the active and inactive calls. No cut-off for these calls is given here.

Assays:
[1] = system: CAL-27; experiment: Inhibition of cell migration in human CAL-27 cells at 1 to 1000 nM incubated for 24 hrs by wound healing assay; assay type: functional, cell-based; conditions: dose 1-1000 nM
[2] = species on record: Homo sapiens; experiment: Inhibition of V-ATPase activity in lysosome of human CAL-27 cells using Lyso-Tracker Red as fluorescent probe assessed as decrease in fluorescence intensity at 0.5 uM incubated for 24 hrs by flow cytometry analysis
[3] = species on record: Homo sapiens; experiment: Inhibition of V-ATPase activity in lysosome of human CAL-27 cells using Lyso-Tracker Red as fluorescent probe assessed as decrease in fluorescence intensity at 0.25 uM incubated for 24 hrs by flow cytometry analysis
[4] = system: CAL-27; experiment: Induction of cell cycle arrest in human CAL-27 cells assessed as downregulation of CDK4 expression incubated for 24 hrs by Western blotting analysis; assay type: functional, cell-based; conditions: dose 1-1000 nM
[5] = system: CAL-27; experiment: Antiproliferative activity against human CAL-27 cells assessed as inhibition rate at 0.1 uM incubated for 72 hrs by MTT assay relative to control; assay type: functional
[6] = Antiproliferative activity against human HN-6 cells assessed as inhibition rate at 0.1 uM incubated for 72 hrs by MTT assay relative to control; assay type: functional
[7] = Antiproliferative activity against human WSU HN-30 cells assessed as inhibition rate at 0.1 uM incubated for 72 hrs by MTT assay relative to control; assay type: functional; conditions: WSU-HN30
[8] = system: SCC-9; experiment: Antiproliferative activity against human SCC-9 cells assessed as inhibition rate at 0.1 uM incubated for 72 hrs by MTT assay relative to control; assay type: functional
[9] = system: SCC-25; experiment: Antiproliferative activity against human SCC-25 cells assessed as inhibition rate at 0.1 uM incubated for 72 hrs by MTT assay relative to control; assay type: functional
[10] = Antiproliferative activity against human L02 cells assessed as inhibition rate at 0.1 uM incubated for 72 hrs by MTT assay relative to control; assay type: toxicity, cell-based
[11] = system: CAL-27; experiment: Cytotoxicity against human CAL-27 cells incubated for 72 hrs by MTT assay; assay type: functional, cell-based; conditions: CAL-27, 72 h
[12] = Cytotoxicity against human HN-6 cells incubated for 72 hrs by MTT assay; assay type: functional, cell-based; conditions: HN-6, 72 h
[13] = Cytotoxicity against human […] incubated for 72 hrs by MTT assay; assay type: functional, cell-based; conditions: WSU-HN30, 72 h
[14] = system: SCC-9; experiment: Cytotoxicity against human SCC-9 cells incubated for 72 hrs by MTT assay; assay type: functional, cell-based; conditions: SCC-9, 72 h
[15] = system: SCC-25; experiment: Cytotoxicity against human SCC-25 cells incubated for 72 hrs by MTT assay; assay type: functional, cell-based; conditions: SCC-25, 72 h
[16] = Cytotoxicity against human L02 cells incubated for 72 hrs by MTT assay; assay type: toxicity, cell-based
[17] = system: MDA-MB-231; experiment: Cytotoxicity against human MDA-MB-231 cells incubated for 72 hrs by MTT assay; assay type: functional, cell-based; conditions: MDA-MB-231, 72 h
[18] = system: SK-BR-3; experiment: Cytotoxicity against human SK-BR-3 cells incubated for 72 hrs by MTT assay; assay type: functional, cell-based; conditions: SK-BR-3, 72 h
[19] = system: K562; experiment: Cytotoxicity against human K562 cells incubated for 72 hrs by MTT assay; assay type: functional, cell-based; conditions: K562, 72 h
[20] = system: Jurkat; experiment: Cytotoxicity against human Jurkat cells incubated for 72 hrs by MTT assay; assay type: functional, cell-based
[21] = system: KYSE-510; experiment: Cytotoxicity against human KYSE-510 cells incubated for 72 hrs by MTT assay; assay type: functional, cell-based; conditions: KYSE-510, 72 h
[22] = system: PANC-1; experiment: Cytotoxicity against human PANC-1 cells incubated for 72 hrs by MTT assay; assay type: functional, cell-based; conditions: PANC-1, 72 h
[23] = system: ASPC1; experiment: Cytotoxicity against human ASPC1 cells incubated for 72 hrs by MTT assay; assay type: functional, cell-based; conditions: ASPC1, 72 h
[24] = system: HepG2; experiment: Cytotoxicity against human HepG2 cells incubated for 72 hrs by MTT assay; assay type: functional, cell-based; conditions: HepG2, 72 h
[25] = system: SNU-449; experiment: Cytotoxicity against human SNU-449 cells incubated for 72 hrs by MTT assay; assay type: functional, cell-based; conditions: SNU-449, 72 h
[26] = system: SNU-182; experiment: Cytotoxicity against human SNU-182 cells incubated for 72 hrs by MTT assay; assay type: functional, cell-based; conditions: SNU-182, 72 h
[27] = Cytotoxicity against human NCI-H322 cells incubated for 72 hrs by MTT assay; assay type: functional, cell-based; conditions: NCI-H322, 72 h
[28] = system: CAL-27; experiment: Antiproliferative activity against human CAL-27 cells assessed as inhibition of cell communities at 10 uM treated for 11 days by plate clone formation assay; assay type: functional, cell-based; conditions: time 11.0 day
[29] = system: CAL-27; experiment: Induction of cell cycle arrest in human CAL-27 cells assessed as downregulation of cyclin D1 expression incubated for 24 hrs by Western blotting analysis; assay type: functional, cell-based; conditions: dose 1-1000 nM
[30] = system: CAL-27; experiment: Induction of apoptosis in human CAL-27 cells assessed as necrotic cells at 1 nM incubated for 72 hrs by Annexin V-FITC/propidium iodide staining based flow cytometry analysis (reference value: 0.03%); assay type: functional
[31] = system: CAL-27; experiment: Induction of apoptosis in human CAL-27 cells assessed as necrotic cells at 10 nM incubated for 72 hrs by Annexin V-FITC/propidium iodide staining based flow cytometry analysis (reference value: 0.03%); assay type: functional
[32] = system: CAL-27; experiment: Induction of apoptosis in human CAL-27 cells assessed as necrotic cells at 100 nM incubated for 72 hrs by Annexin V-FITC/propidium iodide staining based flow cytometry analysis (reference value: 0.03%); assay type: functional
[33] = system: CAL-27; experiment: Induction of apoptosis in human CAL-27 cells assessed as necrotic cells at 1000 nM incubated for 72 hrs by Annexin V-FITC/propidium iodide staining based flow cytometry analysis (reference value: 0.03%); assay type: functional
[34] = Half life in ICR mouse at 1 mg/kg, iv measured upto 24 hrs by LC-MS/MS analysis; assay type: ADME, organism-based; conditions: in vivo
[35] = Cmax in ICR mouse at 1 mg/kg, iv measured upto 24 hrs by LC-MS/MS analysis; assay type: ADME, organism-based; conditions: in vivo
[36] = AUC (0 to t) in ICR mouse at 1 mg/kg, iv measured upto 24 hrs by LC-MS/MS analysis; assay type: ADME, organism-based; conditions: in vivo
[37] = Plasma clearance in ICR mouse at 1 mg/kg, iv measured upto 24 hrs by LC-MS/MS analysis; assay type: ADME, organism-based
[38] = Cmax in ICR mouse at 3 mg/kg, po measured upto 24 hrs by LC-MS/MS analysis; assay type: ADME, organism-based; conditions: in vivo
[39] = AUC (0 to t) in ICR mouse at 3 mg/kg, po measured upto 24 hrs by LC-MS/MS analysis; assay type: ADME, organism-based; conditions: in vivo
[40] = Oral bioavailability in ICR mouse at 3 mg/kg measured upto 24 hrs by LC-MS/MS analysis; assay type: ADME, organism-based; conditions: in vivo
[41] = system: CAL-27; experiment: Antitumor activity against human CAL-27 cells xenografted in BALB/c mouse model assessed as tumor volume change at 0.6 mg/kg, iv treated four times a week for 30 days; assay type: functional; conditions: CAL-27, 720 h, time 30 day, read-out: TGI
[42] = system: CAL-27; experiment: Antitumor activity against human CAL-27 cells xenografted in BALB/c mouse model assessed as tumor volume change at 0.3 mg/kg, iv treated four times a week for 30 days; assay type: functional; conditions: CAL-27, 720 h, time 30 day, read-out: TGI
[43] = system: CAL-27; experiment: Antitumor activity against human CAL-27 cells xenografted in BALB/c mouse model assessed as reduction in tumor weight at 0.6 mg/kg, iv treated four times a week for 30 days; assay type: functional; parameters: scale not given: the % may be the effect or the level left; conditions: time 30 day

COc1cc2c(O[C@@H]3O[C@@H]4CO[C@@H](c5ccsc5)O[C@H]4[C@H](O)[C@H]3O)c3c(c(-c4ccc5c(c4)OCO5)c2cc1OC)C(=O)OC3
inhibition [1]: Active
Activity [2]: Active
Activity [3]: Active
Activity [4]: Dose-dependent-effect; Showed Effective Suppression
inhibition at 0.1 µM [5]: 81.5%
inhibition at 0.1 µM [6]: 69.4%
inhibition at 0.1 µM [7]: 65.5%
inhibition at 0.1 µM [8]: 76.3%
inhibition at 0.1 µM [9]: 64.7%
inhibition at 72 h, 0.1 µM [10]: 23.5%
IC50 [11]: 0.00437 µM
IC50 [12]: 0.00934 µM
IC50 [13]: 0.0778 µM
IC50 [14]: 0.0055 µM
IC50 [15]: 0.00744 µM
IC50 at 72 h [16]: > 10 µM
IC50 [17]: 0.0483 µM
IC50 [18]: 0.0024 µM
IC50 [19]: 0.0028 µM
IC50 [20]: 0.166 µM
IC50 [21]: 0.0109 µM
IC50 [22]: 0.405 µM
IC50 [23]: 0.283 µM
IC50 [24]: 0.0207 µM
IC50 [25]: 0.544 µM
IC50 [26]: 0.0455 µM
IC50 [27]: 0.298 µM
Activity [28]: Active
Activity [29]: Dose-dependent-effect; Showed Effective Suppression
Activity [30]: 0.11%
Activity [31]: 3%
Activity [32]: 4.68%
Activity [33]: 9.61%
half-life [34]: 31.8 min
Cmax [35]: 0.609 µg/mL
AUC(0-t) at 24 h [36]: 0.541 µg·h/mL
clearance [37]: 1.9 L/h/kg
Cmax [38]: 0.306 µg/mL
AUC(0-t) at 24 h [39]: 0.338 µg·h/mL
bioavailability [40]: 20.9%
inhibition in vivo at 0.6 mg/kg [41]: 23.3%
inhibition in vivo at 0.3 mg/kg [42]: 29.2%
Activity [43]: 46%

COc1cc2c(O)c3c(c(-c4ccc5c(c4)OCO5)c2cc1OC)C(=O)OC3 [DIPHYLLIN]
inhibition [1]: Active
Activity [2]: inactive
Activity [3]: inactive
Activity [4]: Dose-dependent-effect
inhibition at 0.1 µM [5]: 13.7%
inhibition at 0.1 µM [6]: 30.8%
inhibition at 0.1 µM [7]: 9.52%
inhibition at 0.1 µM [8]: 16.6%
inhibition at 0.1 µM [9]: 23.3%
inhibition at 72 h, 0.1 µM [10]: 7.61%
IC50 [11]: 2 µM
IC50 [12]: 2.21 µM
IC50 [13]: 1.37 µM
IC50 [14]: 1.35 µM
IC50 [15]: 2.39 µM
IC50 at 72 h [16]: > 10 µM
IC50 [17]: > 10 µM
IC50 [18]: > 10 µM
IC50 [19]: 0.343 µM
IC50 [20]: 1.66 µM
IC50 [21]: 2.04 µM
IC50 [22]: > 10 µM
IC50 [23]: > 10 µM
IC50 [24]: > 10 µM
IC50 [25]: > 10 µM
IC50 [26]: > 10 µM
IC50 [27]: > 10 µM
Activity [28]: Active
Activity [29]: Dose-dependent-effect
Activity [30]: 0.14%
Activity [31]: 0.07%
Activity [32]: 0.08%
Activity [33]: 0.09%
half-life [34]: 6.48 min
Cmax [35]: 0.16 µg/mL
AUC(0-t) at 24 h [36]: 0.0436 µg·h/mL
clearance [37]: 24.5 L/h/kg
Cmax [38]: 0.0119 µg/mL
AUC(0-t) at 24 h [39]: 0.00356 µg·h/mL
bioavailability [40]: 2.7%
inhibition in vivo at 0.6 mg/kg [41]: 42.2%
Activity [43]: 33.3%
